Here are results for 27 molecules from patent publication US11512080B2, “CRBN ligands and uses thereof” (Kymera Therapeutics, Inc., priority 2018, dated 2022).

Chain of His-tagged CRBN-DDB1 complex (Q96SW2 whole entry): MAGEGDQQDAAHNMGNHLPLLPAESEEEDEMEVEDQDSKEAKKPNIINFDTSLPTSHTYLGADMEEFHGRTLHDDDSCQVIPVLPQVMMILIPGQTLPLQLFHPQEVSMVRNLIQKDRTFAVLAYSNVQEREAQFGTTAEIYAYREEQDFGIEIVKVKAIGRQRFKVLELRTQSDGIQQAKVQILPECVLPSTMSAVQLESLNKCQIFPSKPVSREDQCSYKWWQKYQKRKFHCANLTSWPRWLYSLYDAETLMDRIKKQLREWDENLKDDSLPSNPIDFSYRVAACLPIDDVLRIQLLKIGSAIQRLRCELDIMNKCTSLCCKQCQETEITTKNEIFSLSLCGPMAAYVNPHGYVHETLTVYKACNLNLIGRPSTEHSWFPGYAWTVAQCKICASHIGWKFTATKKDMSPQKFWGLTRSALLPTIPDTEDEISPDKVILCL
Chain of His-tagged CRBN-DDB1 complex (Q16531 whole entry partner): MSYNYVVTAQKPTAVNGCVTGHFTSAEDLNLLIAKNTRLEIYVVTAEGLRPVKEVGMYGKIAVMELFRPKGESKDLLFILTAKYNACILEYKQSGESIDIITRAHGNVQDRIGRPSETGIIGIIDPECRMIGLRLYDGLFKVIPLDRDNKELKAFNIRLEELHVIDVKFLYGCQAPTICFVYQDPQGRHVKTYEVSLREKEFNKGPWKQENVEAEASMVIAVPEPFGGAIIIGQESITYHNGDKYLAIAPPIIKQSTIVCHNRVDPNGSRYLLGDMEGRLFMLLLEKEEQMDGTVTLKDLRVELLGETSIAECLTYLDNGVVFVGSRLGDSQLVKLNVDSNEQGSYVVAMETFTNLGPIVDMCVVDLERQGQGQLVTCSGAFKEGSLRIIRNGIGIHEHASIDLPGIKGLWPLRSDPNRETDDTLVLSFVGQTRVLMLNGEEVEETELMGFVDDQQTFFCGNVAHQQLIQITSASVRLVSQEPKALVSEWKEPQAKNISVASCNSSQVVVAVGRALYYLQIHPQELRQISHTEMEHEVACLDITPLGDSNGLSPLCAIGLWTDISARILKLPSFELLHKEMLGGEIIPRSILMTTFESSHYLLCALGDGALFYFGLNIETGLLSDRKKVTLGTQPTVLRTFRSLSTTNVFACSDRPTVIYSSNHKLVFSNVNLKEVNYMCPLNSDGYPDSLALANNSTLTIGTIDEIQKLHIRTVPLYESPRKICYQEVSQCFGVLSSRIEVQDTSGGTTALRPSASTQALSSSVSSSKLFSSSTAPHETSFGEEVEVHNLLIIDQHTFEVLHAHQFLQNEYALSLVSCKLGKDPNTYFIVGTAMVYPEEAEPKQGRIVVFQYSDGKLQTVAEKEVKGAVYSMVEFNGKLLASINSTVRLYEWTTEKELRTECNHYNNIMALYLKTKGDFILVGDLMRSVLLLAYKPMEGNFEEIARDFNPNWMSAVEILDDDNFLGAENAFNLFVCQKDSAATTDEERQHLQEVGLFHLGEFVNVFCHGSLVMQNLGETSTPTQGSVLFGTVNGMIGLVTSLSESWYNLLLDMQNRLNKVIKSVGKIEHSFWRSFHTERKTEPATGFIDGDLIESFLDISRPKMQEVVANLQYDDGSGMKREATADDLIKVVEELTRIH

The target of the first assay is His-tagged CRBN-DDB1 complex (Homo sapiens (Human), UniProt Q96SW2). In words: Time-Resolved Fluorescence Resonance Energy Transfer (TR-FRET) assay. The assay is classed as binding. The note with it: competition with Cy5-labeled thalidomide (8 nM), 1 hour at room temperature; read-out: CRBN HTRF IC50. As for the experimental part:
The mixture were incubated at room temperature for 1 hour. […] Quantitative loss of FRET efficiency as a function of compound concentrations was fitted by a four-parameter Logistic Function using GraphPad Prism 7.0 and the IC50 values were reported for each compound.
The compound numbers correspond to the compound numbers in Table 1.
As a reminder, the IC50 is the concentration that inhibits the measured activity by half. On to `Cn1cccc(N2CCC(=O)NC2=O)c1=O` [Compound I-143], for which the IC50 was over 100 µM.

In the case of `Cn1c(=O)c(N2CCC(=O)NC2=O)cc2ccccc21` [Compound I-144, 1-(1-Methyl-2-oxo-1,2-dihydroquinolin-3-yl)dihydropyrimidine-2,4(1H,3H)-dione], the IC50 was over 100 µM.

Regarding `CN1Cc2ccccc2C(N2CCC(=O)NC2=O)C1=O` (stereo not drawn) [Compound I-145, 1-(2-Methyl-3-oxo-1,2,3,4-tetrahydroisoquinolin-4-yl)dihydropyrimidine-2,4(1H,3H)-dione], the IC50 is over 100 µM.

With `Cn1cc2ccccc2c(N2CCC(=O)NC2=O)c1=O` [Compound I-146, 1-(2-Methyl-3-oxo-2,3-dihydroisoquinolin-4-yl)dihydropyrimidine-2,4(1H,3H)-dione], the IC50 is over 100 µM.

The assay is the same for the next values; noted with them: read-out: CRBN HTRF IC50.
With `Nc1cc(C(F)(F)F)ccc1SC1CCC(=O)NC1=O` (stereo not drawn) [Compound I-120], the IC50 lay within 10 to 100 µM.

As to `CCc1cccc(SC2CCC(=O)NC2=O)c1` (stereo not drawn) [Compound I-121, 3-((3-ethylphenyl)thio)piperidine-2,6-dione], the IC50 lay within 1 to 10 µM.

Consider `O=C1CCC(Sc2cccc(Cl)c2)C(=O)N1` (stereo not drawn) [Compound I-122], for which the IC50 is 1 to 10 µM.

Take `O=C1CCC(Sc2cccc(C(=O)O)c2)C(=O)N1` (stereo not drawn) [Compound I-123]: the IC50 was 10 to 100 µM.

Regarding `CCCCc1ccc(OC2CCC(=O)NC2=O)cc1` (stereo not drawn) [Compound I-124], the IC50 was 1 to 10 µM.

For the molecule `CN(C)c1ccc(OC2CCC(=O)NC2=O)cc1` (stereo not drawn) [Compound I-125], the IC50 lay in the range of 1 to 10 µM.

In the case of `O=C1CCC(Sc2ncccc2C(=O)O)C(=O)N1` (stereo not drawn) [Compound I-126], the IC50 was in the range of 1 to 10 µM.

With `O=C1CCC(Sc2cccc(CO)c2)C(=O)N1` (stereo not drawn) [Compound I-127, 3-((3-(Hydroxymethyl)phenyl)thio)piperidine-2,6-dione], the IC50 is 10 to 100 µM.

Turning to `CN1CCN(c2ccc(OC3CCC(=O)NC3=O)cc2)CC1` (stereo not drawn) [Compound I-128], the IC50 is 10 to 100 µM.

With `O=C1CCC(Oc2cccc3cccnc23)C(=O)N1` (stereo not drawn) [Compound I-129], the IC50 is 10 to 100 µM.

For `NC(=O)c1ccnc(SC2CCC(=O)NC2=O)c1` (stereo not drawn) [Compound I-130, 2-((2,6-Dioxopiperidin-3-yl)thio)isonicotinamide], the IC50 was 1 to 10 µM.

`CNC(=O)c1ccnc(SC2CCC(=O)NC2=O)c1` (stereo not drawn) [Compound I-131, 2-((2,6-Dioxopiperidin-3-yl)thio)-N-methylisonicotinamide]: the IC50 was in the range of 10 to 100 µM.

Regarding `CN(C)C(=O)c1ccnc(SC2CCC(=O)NC2=O)c1` (stereo not drawn) [Compound I-132, 2-((2,6-Dioxopiperidin-3-yl)thio)-N,N-dimethylisonicotinamide], the IC50 was in the range of 10 to 100 µM.

On to `O=C1CCC(Sc2ccc(C(=O)O)cn2)C(=O)N1` (stereo not drawn) [Compound I-133, 6-((2,6-Dioxopiperidin-3-yl)thio)nicotinic Acid], for which the IC50 was 10 to 100 µM.

For `N#Cc1cccc(SC2CCC(=O)NC2=O)c1` (stereo not drawn) [Compound I-134], the IC50 was in the range of 10 to 100 µM.

In the case of `CCN(CC)c1ccc(SC2CCC(=O)NC2=O)cc1` (stereo not drawn) [Compound I-135], the IC50 lay in the range of 1 to 10 µM.

Consider `O=C1CCC(Sc2cccc(C(=O)O)n2)C(=O)N1` (stereo not drawn) [Compound I-136], for which the IC50 is 1 to 10 µM.

With `Cc1c(SC2CCC(=O)NC2=O)cccc1C(=O)O` (stereo not drawn) [Compound I-137, 3-((2,6-Dioxopiperidin-3-yl)thio)-2-methylbenzoic acid], the IC50 lay within 10 to 100 µM.

`Cc1coc(-c2ccnc(SC3CCC(=O)NC3=O)c2)n1` (stereo not drawn) [Compound I-138, 3-((4-(4-Methyloxazol-2-yl)pyridin-2-yl)thio)piperidine-2,6-dione]: the IC50 lay in the range of 1 to 10 µM.

`O=C1CCC(Sc2cc(-c3nn[nH]n3)ccn2)C(=O)N1` (stereo not drawn) [Compound I-139, 3-((4-(2H-Tetrazol-5-yl)pyridin-2-yl)thio)piperidine-2,6-dione]: the IC50 lay in the range of 1 to 10 µM.

With `NC(=O)c1cccnc1SC1CCC(=O)NC1=O` (stereo not drawn) [Compound I-140, 2-((2,6-Dioxopiperidin-3-yl)thio)nicotinamide], the IC50 is 1 to 10 µM.

Consider `CN(C)C(=O)c1cccnc1SC1CCC(=O)NC1=O` (stereo not drawn) [Compound I-141], for which the IC50 fell in the range of 10 to 100 µM.

As to `COCCOCCNC(=O)c1cccnc1SC1CCC(=O)NC1=O` (stereo not drawn) [Compound I-142], the IC50 is 1 to 10 µM.
